Broadly, the Ki is a measure of affinity in units of concentration, obtained from inhibition or displacement.

The source of these data is patent publication US20060128724A1, “Pyrazole-substituted aminoheteroaryl compounds as protein kinase inhibitors” (AGOURON PHARMACEUTICALS, INC., priority 2004, published 2006).

Each structure is given as a SMILES string.

T1 sequence (P08581 974-1390 limits assumed): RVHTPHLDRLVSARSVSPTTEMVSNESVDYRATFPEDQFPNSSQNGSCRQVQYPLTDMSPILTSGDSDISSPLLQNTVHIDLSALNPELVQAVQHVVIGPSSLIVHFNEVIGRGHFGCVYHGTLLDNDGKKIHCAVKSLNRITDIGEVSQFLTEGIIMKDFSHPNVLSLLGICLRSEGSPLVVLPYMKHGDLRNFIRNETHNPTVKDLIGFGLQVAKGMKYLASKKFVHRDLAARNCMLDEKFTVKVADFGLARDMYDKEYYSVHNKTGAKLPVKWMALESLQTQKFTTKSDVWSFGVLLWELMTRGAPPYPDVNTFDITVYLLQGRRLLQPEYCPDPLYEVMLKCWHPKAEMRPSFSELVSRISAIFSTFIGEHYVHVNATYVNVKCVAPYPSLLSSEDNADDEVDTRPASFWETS

One assay addresses T1, c-MET (HGFR) (Homo sapiens, UniProt P08581).
T1 construct: purchased Upstate 14-526
Kind of assay: HGFR Continuous-Coupled Spectrophotometric Assay. Type of assay: biochemical. The settings on record: Met-2 substrate peptide, 50 nM HGFR, 37° C.; read-out: Met Ki. The source says: The following in vitro assay may be used to determine the level of activity and effect of the different compounds of the present invention on one or more of the PKs. Similar assays can be designed along the same lines for any PK using techniques well known in the art.
The general procedure is as follows: compounds and kinase assay reagents are introduced into test wells. The assay is initiated by addition of the kinase enzyme. Enzyme inhibitors reduce the measured activity of the enzyme.
In the continuous-coupled spectrophotometric assay the time-dependent production of ADP by the kinase is determined by analysis of the rate of consumption of NADH by measurement of the decrease in absorbance at 340 nm. As the PK produces ADP it is re-converted to ATP by reaction with phosphoenol pyruvate and pyruvate kinase. Pyruvate is also produced in this reaction. Pyruvate is subsequently converted to lactate by reaction with lactate dehydrogenase, which simultaneously converts NADH to NAD.
HGFR Continuous-Coupled Spectrophotometric Assay
This assay analyzes the tyrosine kinase activity of HGFR on the Met-2 substrate peptide, a peptide derived from the activation loop of the HGFR.
• 1. […] Dissolve up in 200 mM HEPES, pH 7.5 at 10 mM stock. • 3. 1 M PEP (phospho-enol-pyruvate) in 200 mM HEPES, pH 7.5 • 4. 100 mM NADH (B-Nicotinamide Adenine Dinucleotide, Reduced Form) in 200 mM HEPES, pH 7.5 • 5. 4 M MgCl2 (Magnesium Chloride) in ddH2O • 6. 1 M DTT (Dithiothreitol) in 200 mM HEPES, pH 7.5 • 7. 15 Units/mL LDH (Lactic Dehydrogenase) • 8. 15 Units/mL PK (Pyruvate Kinase) • 9. 5M NaCl dissolved in ddH2O • 10. Tween-20 (Protein Grade) 10% Solution • 11. 1 M HEPES buffer: (N-[2-Hydroxethyl]piperazine-N-[2-ethanesulfonic acid]) Sodium Salt. Dissolve in ddH2O, adjust pH to 7.5, bring volume to 1 L. Filter at 0.1 μm. • 12. […] 100% DMSO (SIGMA) • 14. […] Beckman DU-650 w/micro cell holders • 18. Beckman 4-position micro cell cuvette Procedure:
Prep Dilution Buffer (DB) for Enzyme (For 30 mL prep) • 1. DB final concentration is 2 mM DTT, 25 mM NaCl2, 5 mM MgCl2, 0.01% Tween-20, and 50 mM HEPES buffer, pH 7.5. • 2. Make up 50 mM HEPES by adding 1.5 mL 1 M HEPES into 28.1 mL of ddH2O. Add rest of the reagents. Into 50 mL conical vial, add 60 μL of 1M DTT, 150 μL 5M NaCl2, 150 μL 1M MgCl2, and 30 μL of 10% Tween-20 to give total volume of 30 mL. • 3. […] Aliquot out DB at 1 mL/tube and label tubes as “DB HGFR” • 5. Note: This can be prepared and stored ahead of time. • 6. Freeze un-used aliquots in microcentrifuge tubes at −20° C. freezer. […] For compound dilution plate, add 4 μL of 10 mM stock into column 1 of plate, and bring volume to 100 μL with 100% DMSO. • 2. Set up the Precision 2000 dilution method. A final concentration of 200 μM compound in 50% DMSO, 100 mM HEPES (1:2 serial dilution). Prep Coupled Enzymatic Buffer:
1. Final concentration in assay:
• 2. For a 10 mL reaction buffer add 10 μL of 1M PEP, 33 μL of 100 mM NADH, 50 μL of 4M MgCl2, 20 μL of 1M DTT, 6 μL of 500 mM ATP, and 500 μL of 10 mM Met-2 peptide into 100 mM HEPES buffer pH 7.5 and vortex/mix. • 3. Add coupling enzymes, LDH and PK, into reaction mix. Mix by gentle inversion. Running Samples
1. Spectrophotometer settings:
• 2. Add 85 μL of CE reaction mix into each well of assay plate. • 3. Add 5 μL of diluted compound into a well of the assay plate. • 4. Add 5 μL of 50% DMSO for negative control into last column of assay plate. • 5. Mix with multi-channel pipettor or orbital shaker. • 6. Pre-incubate for 10 minutes at 37° C. • 7. Add 10 μL of 500 nM HGFR to each well of assay plate; the final HGFR concentration is 50 nM in a total final volume of 100 μL. • 8. Measure activity for 10 minutes at λ=340 nm and 37° C.
In the case of `CC(Oc1cc(-c2cnn(C3CCN(C(=O)CN4CCOCC4)CC3)c2)cnc1N)c1c(Cl)ccc(F)c1Cl` (centres unmarked) [Example 123, 1-[4-(4-{6-Amino-5-[1-(2,6-dichloro-3-fluoro-phenyl)-ethoxy]-pyridin-3-yl}-pyrazol-1-yl)-piperidin-1-yl]-2-morpholin-4-yl-ethanone], the Ki turned out to be 0.013 µM.

`CC(Oc1cc(-c2cnn(C)c2)cnc1N)c1c(Cl)c(F)cc(OC2CCCNC2)c1Cl` (centres unmarked) [Example 156, 3-{1-(2,6-Dichloro-3-fluoro-5-(piperidin-3-yloxy)-phenyl]-ethoxy}-5-(1-methyl-1H-pyrazol-4-yl)-pyridin-2-ylamine]: the Ki worked out at 0.036 µM.

For the compound `CC(Oc1cc(-c2cnn(C3CCN(C(=O)NCCO)CC3)c2)cnc1N)c1c(Cl)ccc(F)c1Cl` (centres unmarked) [Example 122, 4-(4-[6-Amino-5-[1-(2,6-dichloro-3-fluoro-phenyl)-ethoxy]-pyridin-3-yl}-pyrazol-1-yl)-piperidine-1-carboxylic acid (2-hydroxy-ethyl)-amide], the Ki is 0.15 µM.

With `CC(Oc1cc(-c2cnn(C3CCNCC3)c2)cnc1N)c1cc(F)ccc1C#N` (centres unmarked) [Example 135, 2-{1-[2-Amino-5-(1-piperidin-4-yl-1H-pyrazol-4-yl)-pyridin-3-yloxy]ethyl}-4-fluoro-benzonitrile], the inhibition constant (Ki) stood at 0.849 µM.

For `COCCOc1ccc(Cl)c(C(C)Oc2cc(-c3cnn(C4CCNCC4)c3)cnc2N)c1Cl` (centres unmarked) [Example 141, 3-{1-(2,6-Dichloro-3-(2-methoxy-ethoxy)-phenyl]-ethoxy}-5-(1-piperidin-4-yl-1H-pyrazol-4-yl)-pyridin-2-ylamine], the Ki was 0.044 µM.

For the compound `CCOc1ccc(Cl)c(C(C)Oc2cc(-c3cnn(C4CCNCC4)c3)cnc2N)c1Cl` (centres unmarked) [Example 139], the Ki came to 0.022 µM.

Still in this assay, the particulars now being: Met-2 substrate peptide, 50 nM HGFR, 37° C.; read-out: c-Met Ki.
In the case of `CC(Oc1cc(-n2ncc3ccccc32)cnc1N)c1c(Cl)ccc(F)c1Cl` (centres unmarked) [Example 78, 3-[1-(2,6-Dichloro-3-fluoro-phenyl)-ethoxy]-5-indazol-1-yl-pyridin-2-ylamine], the Ki amounted to 1.56 µM.

For the compound `CC(Oc1cc(-c2cnn(C3CN(CCO)C3)c2)cnc1N)c1c(Cl)ccc(F)c1Cl` (centres unmarked) [Example 102, 2-[3-(4-{6-amino-5-[1-(2,6-dichloro-3-fluorophenyl)ethoxy]pyridin-3-yl}11H-pyrazol-1-yl)azetidin-1-yl]ethanol], the Ki was 0.05 µM.

Turning to `C[C@@H](Oc1nc(Br)cnc1N)c1c(Cl)ccc(F)c1Cl` [5-bromo-3-[(R)-1-(2,6-dichloro-3-fluoro-phenyl)-ethoxy]-pyrazin-2-ylamine], the Ki amounted to 0.796 µM.

Regarding `CC(Oc1cc(-c2cnn(C3CN(C(=O)CO)C3)c2)cnc1N)c1c(Cl)ccc(F)c1Cl` (centres unmarked) [Example 105, 2-[3-(4-{6-amino-5-[1-(2,6-dichloro-3-fluorophenyl)ethoxy]pyridin-3-yl}1H-pyrazol-1-yl)azetidin-1-yl]-2-oxoethanol], the Ki worked out at 0.022 µM.

For `CC(Oc1cc(-c2cnn(C[C@H]3C[C@@H]3C(=O)N(C)C)c2)cnc1N)c1c(Cl)ccc(F)c1Cl` (stereo in doubt) [Example 11, 2-[(4-{6-amino-5-[1-(2,6-dichloro-3-fluorophenyl)ethoxy]pyridin-3-yl}-1H-pyrazol-1-yl)methyl]-N,N-dimethylcyclopropanecarboxamide], the Ki is 0.144 µM.

`COCCN1CC(n2cc(-c3cnc(N)c(OC(C)c4c(Cl)ccc(F)c4Cl)c3)cn2)C1` (centres unmarked) [Example 103, 3-[1-(2,6-dichloro-3-fluorophenyl)ethoxy]-5-{1-[1-(2-methoxyethyl)azetidin-3-yl]-1H-pyrazol-4-yl}-pyridin-2-amine]: the Ki came out at 0.07 µM.

In the case of `C[C@@H](Oc1nc(-c2cnn(C3CCNCC3)c2)cnc1N)c1c(Cl)ccc(F)c1Cl` [Example 66, 3-[(R)-1-(2,6-Dichloro-3-fluoro-phenyl)-ethoxy]-5-(1-piperidin-4-yl-1H-pyrazol-4-yl)-pyrazin-2-ylamine], the Ki was found to be 0.01 µM.

Regarding `CC(Oc1cc(-c2cnn(C[C@H](O)CO)c2)cnc1N)c1c(Cl)ccc(F)c1Cl` (stereo in doubt) [Example 87, 3-(4-{6-Amino-5-[1-(2,6-dichloro-3-fluoro-phenyl)-ethoxy]-pyridin-3-yl}-pyrazol-1-yl)-propane-1,2-diol], the Ki was 0.028 µM.

`CC(Oc1cc(-c2cnn(C(C)(C)C(=O)N3CC[C@H](O)C3)c2)cnc1N)c1c(Cl)ccc(F)c1Cl` (stereo partly drawn) [Example 56, 2-(4-{6-Amino-5-[1-(2,6-dichloro-3-fluoro-phenyl)-ethoxy]-pyridin-3-yl}-pyrazol-1-yl)-1-((S)-3-hydroxy-pyrrolidin-1-yl)-2-methyl-propan-1-one]: the Ki was 0.47 µM.

`CC(Oc1cc(-c2cnn(C3CCOC3)c2)cnc1N)c1c(Cl)ccc(F)c1Cl` (centres unmarked) [Example 27, 3-[1-(2,6-Dichloro-3-fluoro-phenyl)-ethoxy]-5-[1-(tetrahydro-furan-3-yl)-1H-pyrazol-4-yl]-pyridin-2-ylamine]: the Ki was 0.04 µM.

Turning to `CC(Oc1cc(-c2cnn(C3CNC(C(N)=O)C3)c2)cnc1N)c1c(Cl)ccc(F)c1Cl` (centres unmarked) [Example 91, 4-(4-{6-Amino-5-[1-(2,6-dichloro-3-fluoro-phenyl)-ethoxy]-pyridin-3-yl}pyrazol-1-yl)-pyrrolidine-2-carboxylic acid amide], the Ki stood at 0.044 µM.

On to `CC(Oc1cc(-c2cnn(CCO)c2)cnc1N)c1c(Cl)ccc(F)c1Cl` (centres unmarked) [Example 83, 2-(4-{6-Amino-5-[1-(2,6-dichloro-3-fluoro-phenyl)-ethoxy]-pyridin-3-yl}-pyrazol-1-yl)-ethanol], for which the Ki was determined as 0.046 µM.

As for `CC(Oc1cc(-c2cnn(C3CCN(C(C)C)CC3)c2)cnc1N)c1c(Cl)ccc(F)c1Cl` (centres unmarked) [Example 38, 3-[1-(2,6-Dichloro-3-fluoro-phenyl)-ethoxy]-5-[1-(1-isopropyl-piperidin-4-yl)-1H-pyrazol-4-yl]-pyridin-2-ylamine], the Ki stood at 0.01 µM.

Turning to `CC(Oc1cc(-c2cnn(C[C@H]3COC(C)(C)O3)c2)cnc1N)c1c(Cl)ccc(F)c1Cl` (stereo in doubt) [Example 86, 3-[1-(2,6-Dichloro-3-fluoro-phenyl)-ethoxy]-5-[1-(2,2-dimethyl-[1,3]dioxolan-4-ylmethyl)-1H-pyrazol-4-yl]-pyridin-2-ylamine], the Ki is 0.062 µM.

On to `CC(Oc1cc(-c2cnn(C3CN(CC#N)C3)c2)cnc1N)c1c(Cl)ccc(F)c1Cl` (centres unmarked) [Example 8, [3-(4-{6-amino-5-[1-(2,6-dichloro-3-fluorophenyl)ethoxy]pyridin-3-yl}-1H-pyrazol-1-yl)azetidin-1-yl]acetonitrile], for which the Ki was found to be 0.025 µM.

Consider `CC(Oc1cc(-c2cnn(C(C)(C)C(=O)NCCO)c2)cnc1N)c1c(Cl)ccc(F)c1Cl` (centres unmarked) [Example 35, 2-(4-{6-Amino-5-[1-(2,6-dichloro-3-fluoro-phenyl)-ethoxy]-pyridin-3-yl}-pyrazol-1-yl)-N-(2-hydroxy-ethyl)-isobutyramide], for which the Ki was found to be 0.06 µM.

The assay is the same for the next values; noted with them: test concentration not given.
As for `Nc1ncc(-c2cn[nH]c2)cc1OC1CCCCc2ccc(F)cc21` (centres unmarked) [Example 54, 3-(3-Fluoro-6,7,8,9-tetrahydro-5H-benzocyclohepten-5-yloxy)-5-(1H-pyrazol-4-yl)-pyridin-2-ylamine], the “c-Met % Inhibition” value was found to be 21%.
